The term TGI denotes the concentration giving total growth inhibition. Low values mean more potent growth arrest, high ones less potent growth arrest.

The structures appear in SMILES notation.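 Exposure lasted 48 hours, with cells grown in 96-well plates and compounds tested at five concentrations. TGI: total growth inhibition.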

The first assay deals with SK-MEL-2 melanoma. The assay can be described thus: DTP human tumour cell line panel, 48 h.
In turn, `O=C(Nc1ccc(C2=NCCN2)cc1)c1cncc(C(=O)Nc2ccc(C3=NCCN3)cc2)c1` yielded a TGI of over 100 µM.
Turning to `CCOC(=O)C(NC(C)=O)(Nc1ccc(F)cc1)C(F)(F)F` (configuration not stated), the concentration for total growth inhibition (TGI) is over 100 µM.
Take `Cc1cn(C2CC(n3cc(Cn4cc(I)c(=O)[nH]c4=O)nn3)C(CO)O2)c(=O)[nH]c1=O` (configuration not stated): the TGI is over 100 µM.
On the same count and under the same terms, as for `CCOc1cc2c(cc1O)/C(=N\OC)C[C@@H]1[C@@H]2CC[C@]2(C)[C@@H](O)CC[C@@H]12`, the figure is 4.42 µM.

Another assay concerns HOP-62 NSCLC. Kind of assay: DTP human tumour cell line panel, 48 h.
`O=C(Nc1ccc(C2=NCCN2)cc1)c1cncc(C(=O)Nc2ccc(C3=NCCN3)cc2)c1` registered a TGI of over 100 µM.
Turning to `Cc1cn(C2CC(n3cc(Cn4cc(I)c(=O)[nH]c4=O)nn3)C(CO)O2)c(=O)[nH]c1=O` (configuration not stated), the TGI was over 100 µM.
In turn, `CCOc1cc2c(cc1O)/C(=N\OC)C[C@@H]1[C@@H]2CC[C@]2(C)[C@@H](O)CC[C@@H]12` registered a TGI of 26.4 µM.

For another assay, the system named is COLO 205 colon. The assay can be described thus: DTP human tumour cell line panel, 48 h.
As for `O=C(Nc1ccc(C2=NCCN2)cc1)c1cncc(C(=O)Nc2ccc(C3=NCCN3)cc2)c1`, the TGI is over 100 µM.
Same read-out and setting: the result for `CCOC(=O)C(NC(C)=O)(Nc1ccc(F)cc1)C(F)(F)F` (configuration not stated) reads over 100 µM.
Same read-out and setting: as for `Cc1cn(C2CC(n3cc(Cn4cc(I)c(=O)[nH]c4=O)nn3)C(CO)O2)c(=O)[nH]c1=O` (configuration not stated), the figure is over 100 µM; as for `CCOc1cc2c(cc1O)/C(=N\OC)C[C@@H]1[C@@H]2CC[C@]2(C)[C@@H](O)CC[C@@H]12`, 40.8 µM.

A further assay relates to HS 578T breast. Kind of assay: DTP human tumour cell line panel, 48 h.
The compound `CCOC(=O)C(NC(C)=O)(Nc1ccc(F)cc1)C(F)(F)F` (configuration not stated) had a TGI of over 100 µM.
Consider `Cc1cn(C2CC(n3cc(Cn4cc(I)c(=O)[nH]c4=O)nn3)C(CO)O2)c(=O)[nH]c1=O` (configuration not stated), for which the TGI was over 100 µM.
`CCOc1cc2c(cc1O)/C(=N\OC)C[C@@H]1[C@@H]2CC[C@]2(C)[C@@H](O)CC[C@@H]12` gave a TGI of 0.776 µM.

In another assay the test system is SNB-19 CNS. The assay can be described thus: DTP human tumour cell line panel, 48 h.
The compound `O=C(Nc1ccc(C2=NCCN2)cc1)c1cncc(C(=O)Nc2ccc(C3=NCCN3)cc2)c1` registered a TGI of over 100 µM.
Same read-out and setting: as for `CCOC(=O)C(NC(C)=O)(Nc1ccc(F)cc1)C(F)(F)F` (configuration not stated), the figure is over 100 µM; as for `Cc1cn(C2CC(n3cc(Cn4cc(I)c(=O)[nH]c4=O)nn3)C(CO)O2)c(=O)[nH]c1=O` (configuration not stated), over 100 µM; as for `CCOc1cc2c(cc1O)/C(=N\OC)C[C@@H]1[C@@H]2CC[C@]2(C)[C@@H](O)CC[C@@H]12`, over 100 µM.

Another assay relates to NCI/ADR-RES ovarian. The assay can be described thus: DTP human tumour cell line panel, 48 h.
The compound `O=C(Nc1ccc(C2=NCCN2)cc1)c1cncc(C(=O)Nc2ccc(C3=NCCN3)cc2)c1` displayed a TGI of over 100 µM.
`CCOC(=O)C(NC(C)=O)(Nc1ccc(F)cc1)C(F)(F)F` (configuration not stated): the total growth inhibition concentration (TGI) is over 100 µM.
Still for that read-out and setting: the result for `Cc1cn(C2CC(n3cc(Cn4cc(I)c(=O)[nH]c4=O)nn3)C(CO)O2)c(=O)[nH]c1=O` (configuration not stated) reads over 100 µM; that for `CCOc1cc2c(cc1O)/C(=N\OC)C[C@@H]1[C@@H]2CC[C@]2(C)[C@@H](O)CC[C@@H]12`, 0.186 µM.

Another assay relates to OVCAR-3 ovarian. The assay can be described thus: DTP human tumour cell line panel, 48 h.
`O=C(Nc1ccc(C2=NCCN2)cc1)c1cncc(C(=O)Nc2ccc(C3=NCCN3)cc2)c1` yielded a TGI of over 100 µM.
With `CCOC(=O)C(NC(C)=O)(Nc1ccc(F)cc1)C(F)(F)F` (configuration not stated), the TGI is over 100 µM.
Turning to `Cc1cn(C2CC(n3cc(Cn4cc(I)c(=O)[nH]c4=O)nn3)C(CO)O2)c(=O)[nH]c1=O` (configuration not stated), the total growth inhibition concentration (TGI) is over 100 µM.
Compound `CCOc1cc2c(cc1O)/C(=N\OC)C[C@@H]1[C@@H]2CC[C@]2(C)[C@@H](O)CC[C@@H]12` showed a TGI of 2.29 µM. This lies in the single-digit micromolar range.

The test system of a further assay is RXF 393 renal. Kind of assay: DTP human tumour cell line panel, 48 h.
`O=C(Nc1ccc(C2=NCCN2)cc1)c1cncc(C(=O)Nc2ccc(C3=NCCN3)cc2)c1` displayed a TGI of over 100 µM.
On the same count and under the same terms, the result for `CCOC(=O)C(NC(C)=O)(Nc1ccc(F)cc1)C(F)(F)F` (configuration not stated) reads over 100 µM; that for `Cc1cn(C2CC(n3cc(Cn4cc(I)c(=O)[nH]c4=O)nn3)C(CO)O2)c(=O)[nH]c1=O` (configuration not stated), over 100 µM.

The subject of a further assay is MDA-N. The assay can be described thus: DTP human tumour cell line panel, 48 h.
`CCOC(=O)C(NC(C)=O)(Nc1ccc(F)cc1)C(F)(F)F` (configuration not stated) came in with a TGI of over 100 µM.
Still for that read-out and setting: as for `Cc1cn(C2CC(n3cc(Cn4cc(I)c(=O)[nH]c4=O)nn3)C(CO)O2)c(=O)[nH]c1=O` (configuration not stated), the figure is over 100 µM; as for `CCOc1cc2c(cc1O)/C(=N\OC)C[C@@H]1[C@@H]2CC[C@]2(C)[C@@H](O)CC[C@@H]12`, 0.031 µM.

Another assay deals with M14 melanoma. Kind of assay: DTP human tumour cell line panel, 48 h.
Turning to `CCOC(=O)C(NC(C)=O)(Nc1ccc(F)cc1)C(F)(F)F` (configuration not stated), the TGI is over 100 µM.
Still for that read-out and setting: the result for `Cc1cn(C2CC(n3cc(Cn4cc(I)c(=O)[nH]c4=O)nn3)C(CO)O2)c(=O)[nH]c1=O` (configuration not stated) reads over 100 µM; that for `CCOc1cc2c(cc1O)/C(=N\OC)C[C@@H]1[C@@H]2CC[C@]2(C)[C@@H](O)CC[C@@H]12`, 21.8 µM.

Another assay deals with NCI-H23 lung. The assay can be described thus: DTP human tumour cell line panel, 48 h.
In turn, `O=C(Nc1ccc(C2=NCCN2)cc1)c1cncc(C(=O)Nc2ccc(C3=NCCN3)cc2)c1` showed a TGI of over 100 µM.
Same read-out and setting: the result for `CCOC(=O)C(NC(C)=O)(Nc1ccc(F)cc1)C(F)(F)F` (configuration not stated) reads over 100 µM; that for `Cc1cn(C2CC(n3cc(Cn4cc(I)c(=O)[nH]c4=O)nn3)C(CO)O2)c(=O)[nH]c1=O` (configuration not stated), over 100 µM; that for `CCOc1cc2c(cc1O)/C(=N\OC)C[C@@H]1[C@@H]2CC[C@]2(C)[C@@H](O)CC[C@@H]12`, over 39.2 µM.

A further assay has as its system PC-3 prostate. Kind of assay: DTP human tumour cell line panel, 48 h.
The compound `CCOC(=O)C(NC(C)=O)(Nc1ccc(F)cc1)C(F)(F)F` (configuration not stated) returned a TGI of over 100 µM.
As to `Cc1cn(C2CC(n3cc(Cn4cc(I)c(=O)[nH]c4=O)nn3)C(CO)O2)c(=O)[nH]c1=O` (configuration not stated), the TGI is over 100 µM.
Compound `CCOc1cc2c(cc1O)/C(=N\OC)C[C@@H]1[C@@H]2CC[C@]2(C)[C@@H](O)CC[C@@H]12` returned a TGI of over 30.7 µM.

For another assay, the system named is MCF7 breast. The assay can be described thus: DTP human tumour cell line panel, 48 h.
Take `O=C(Nc1ccc(C2=NCCN2)cc1)c1cncc(C(=O)Nc2ccc(C3=NCCN3)cc2)c1`: the TGI was over 100 µM.
On the same count and under the same terms, the result for `CCOC(=O)C(NC(C)=O)(Nc1ccc(F)cc1)C(F)(F)F` (configuration not stated) reads over 100 µM; that for `Cc1cn(C2CC(n3cc(Cn4cc(I)c(=O)[nH]c4=O)nn3)C(CO)O2)c(=O)[nH]c1=O` (configuration not stated), over 100 µM; that for `CCOc1cc2c(cc1O)/C(=N\OC)C[C@@H]1[C@@H]2CC[C@]2(C)[C@@H](O)CC[C@@H]12`, over 37.6 µM.

A further assay concerns HCC-2998 colon. The assay can be described thus: DTP human tumour cell line panel, 48 h.
With `O=C(Nc1ccc(C2=NCCN2)cc1)c1cncc(C(=O)Nc2ccc(C3=NCCN3)cc2)c1`, the TGI was over 100 µM.
Same read-out and setting: as for `CCOC(=O)C(NC(C)=O)(Nc1ccc(F)cc1)C(F)(F)F` (configuration not stated), the figure is over 100 µM; as for `Cc1cn(C2CC(n3cc(Cn4cc(I)c(=O)[nH]c4=O)nn3)C(CO)O2)c(=O)[nH]c1=O` (configuration not stated), over 100 µM; as for `CCOc1cc2c(cc1O)/C(=N\OC)C[C@@H]1[C@@H]2CC[C@]2(C)[C@@H](O)CC[C@@H]12`, 14.4 µM.

In the next assay the test system is MOLT-4 leukemia. The assay can be described thus: DTP human tumour cell line panel, 48 h.
For `O=C(Nc1ccc(C2=NCCN2)cc1)c1cncc(C(=O)Nc2ccc(C3=NCCN3)cc2)c1`, the TGI was over 100 µM.
With `CCOC(=O)C(NC(C)=O)(Nc1ccc(F)cc1)C(F)(F)F` (configuration not stated), the TGI was over 100 µM.
As for `Cc1cn(C2CC(n3cc(Cn4cc(I)c(=O)[nH]c4=O)nn3)C(CO)O2)c(=O)[nH]c1=O` (configuration not stated), the TGI is over 100 µM.
Same read-out and setting: the result for `CCOc1cc2c(cc1O)/C(=N\OC)C[C@@H]1[C@@H]2CC[C@]2(C)[C@@H](O)CC[C@@H]12` reads 26.5 µM.

The next assay relates to UACC-62 melanoma. The assay can be described thus: DTP human tumour cell line panel, 48 h.
Regarding `O=C(Nc1ccc(C2=NCCN2)cc1)c1cncc(C(=O)Nc2ccc(C3=NCCN3)cc2)c1`, the TGI was over 100 µM.
With `CCOC(=O)C(NC(C)=O)(Nc1ccc(F)cc1)C(F)(F)F` (configuration not stated), the TGI was over 100 µM.
On the same count and under the same terms, as for `Cc1cn(C2CC(n3cc(Cn4cc(I)c(=O)[nH]c4=O)nn3)C(CO)O2)c(=O)[nH]c1=O` (configuration not stated), the figure is over 100 µM.
Turning to `CCOc1cc2c(cc1O)/C(=N\OC)C[C@@H]1[C@@H]2CC[C@]2(C)[C@@H](O)CC[C@@H]12`, the TGI came out at 24 µM.

A further assay deals with SK-MEL-28 melanoma. The assay can be described thus: DTP human tumour cell line panel, 48 h.
`O=C(Nc1ccc(C2=NCCN2)cc1)c1cncc(C(=O)Nc2ccc(C3=NCCN3)cc2)c1`: the TGI is over 31.6 µM.
On the same count and under the same terms, the result for `CCOC(=O)C(NC(C)=O)(Nc1ccc(F)cc1)C(F)(F)F` (configuration not stated) reads over 100 µM; that for `Cc1cn(C2CC(n3cc(Cn4cc(I)c(=O)[nH]c4=O)nn3)C(CO)O2)c(=O)[nH]c1=O` (configuration not stated), over 100 µM.
Still for that read-out and setting: as for `CCOc1cc2c(cc1O)/C(=N\OC)C[C@@H]1[C@@H]2CC[C@]2(C)[C@@H](O)CC[C@@H]12`, the figure is over 60.2 µM.

The subject of another assay is MDA-MB-231 breast. Kind of assay: DTP human tumour cell line panel, 48 h.
As to `CCOC(=O)C(NC(C)=O)(Nc1ccc(F)cc1)C(F)(F)F` (configuration not stated), the TGI is over 100 µM.
Still for that read-out and setting: as for `Cc1cn(C2CC(n3cc(Cn4cc(I)c(=O)[nH]c4=O)nn3)C(CO)O2)c(=O)[nH]c1=O` (configuration not stated), the figure is over 100 µM; as for `CCOc1cc2c(cc1O)/C(=N\OC)C[C@@H]1[C@@H]2CC[C@]2(C)[C@@H](O)CC[C@@H]12`, 44.7 µM.

Another assay concerns U251 CNS. Kind of assay: DTP human tumour cell line panel, 48 h.
The compound `O=C(Nc1ccc(C2=NCCN2)cc1)c1cncc(C(=O)Nc2ccc(C3=NCCN3)cc2)c1` registered a total growth inhibition concentration (TGI) of over 100 µM.
Still for that read-out and setting: as for `CCOC(=O)C(NC(C)=O)(Nc1ccc(F)cc1)C(F)(F)F` (configuration not stated), the figure is over 100 µM.
The compound `Cc1cn(C2CC(n3cc(Cn4cc(I)c(=O)[nH]c4=O)nn3)C(CO)O2)c(=O)[nH]c1=O` (configuration not stated) returned a TGI of over 100 µM.
Same read-out and setting: as for `CCOc1cc2c(cc1O)/C(=N\OC)C[C@@H]1[C@@H]2CC[C@]2(C)[C@@H](O)CC[C@@H]12`, the figure is 22.8 µM.

For the next assay, the system named is ACHN renal. The assay can be described thus: DTP human tumour cell line panel, 48 h.
The compound `CCOC(=O)C(NC(C)=O)(Nc1ccc(F)cc1)C(F)(F)F` (configuration not stated) returned a TGI of over 100 µM.
In turn, `Cc1cn(C2CC(n3cc(Cn4cc(I)c(=O)[nH]c4=O)nn3)C(CO)O2)c(=O)[nH]c1=O` (configuration not stated) displayed a TGI of over 100 µM.
Same read-out and setting: as for `CCOc1cc2c(cc1O)/C(=N\OC)C[C@@H]1[C@@H]2CC[C@]2(C)[C@@H](O)CC[C@@H]12`, the figure is over 100 µM.

For the origin of these results see PubChem BioAssay (NCI).
